≈ marks a conversion by molar mass, not a printed value.
Experiments:
Assay in all cases: In vitro antibacterial activity, two-fold agar-plate dilution method
Format in all cases: cell-based
[1] = test system: Proteus vulgaris LAM-1025; conditions: LAM1025, HI-agar, 37° C., 20 hours
Protocol: (§1) In vitro antibacterial activity was determined by the two-fold agar-plate dilution method as described below. One loopful of an overnight culture of each test strain in Trypticase-soy broth (approximately 10^6 viable cells per ml.) was streaked on heat infusion agar (HI-agar) containing graded concentrations of antibiotics, and the minimal inhibitory concentration (MIC) was expressed in terms of μg./ml. after incubation at 37° C. for 20 hours.

[2] = test system: Pseudmonas aeruginose NCTC-10490; conditions: HI-agar, 37° C., 20 hours
Protocol: as §1

[3] = test system: Staphylococcus aureus 209-P JC-1; conditions: HI-agar, 37° C., 20 hours
Protocol: as §1

[4] = test system: Esherichia coli 327; conditions: HI-agar, 37° C., 20 hours
Protocol: as §1

[5] = test system: Proteus mirabilis 525; conditions: HI-agar, 37° C., 20 hours
Protocol: as §1

| MIC [1] [µg/mL] | MIC [2] [µg/mL] | MIC [3] [µg/mL] | MIC [4] [µg/mL] | MIC [5] [µg/mL] | SMILES |
| --- | --- | --- | --- | --- | --- |
| 3.13 (≈ 7.8 µM) | 400 (≈ 996 µM) | 6.25 (≈ 15.6 µM) | – | – | CON=C(C(=O)NC1C(=O)N2C(C(=O)O)=CCS[C@H]12)C1=CSCCS1 (some centres unmarked) [compound 5, 7-[2-(2,3-dihydro-1,4-dithiin-5-yl)-2-methoxyiminoacetamido]-3-cephem-4-carboxylic acid] |
| 12.5 (≈ 27.3 µM) | 25 (≈ 54.6 µM) | 3.13 (≈ 6.84 µM) | 0.78 (≈ 1.7 µM) | 0.78 (≈ 1.7 µM) | CO/N=C(\C(=O)NC1C(=O)N2C(C(=O)O)=C(COC(C)=O)CSC12)C1=CSCCO1 (centres unmarked) [compound 1, 7-[2-(2,3-dihydro-1,4-oxathiin-6-yl)-2-methoxyiminoacetamido]cephalosporanic acid] |
| 100 (≈ 218 µM) | 50 (≈ 109 µM) | 6.25 (≈ 13.6 µM) | 0.78 (≈ 1.7 µM) | 0.78 (≈ 1.7 µM) | CON=C(C(=O)NC1C(=O)N2C(C(=O)O)=C(COC(N)=O)CS[C@H]12)C1=CSCCO1 (some centres unmarked) [compound 3, 7-[2-(2,3-dihydro-1,4-oxathiin-6-yl)-2-methoxyiminoacetamido]-3-carbamoyloxymethyl-3-cephem-4-carboxylic acid] |
| 25 (≈ 48.7 µM) | 12.5 (≈ 24.3 µM) | 3.13 (≈ 6.09 µM) | 0.2 (≈ 0.389 µM) | 0.78 (≈ 1.52 µM) | CON=C(C(=O)NC1C(=O)N2C(C(=O)O)=C(CSc3nnnn3C)CS[C@H]12)C1=CSCCO1 (some centres unmarked) [compound 2, 7-[2-(2,3-dihydro-1,4-oxathiin-6-yl)-2-methoxyiminoacetamido]-3-(1-methyl-1H-tetrazol-5-yl)thiomethyl-3-cephem-4-carboxylic acid] |
| 6.25 (≈ 11.8 µM) | 50 (≈ 94 µM) | 0.39 (≈ 0.734 µM) | 0.78 (≈ 1.47 µM) | 3.13 (≈ 5.89 µM) | CON=C(C(=O)NC1C(=O)N2C(C(=O)O)=C(CSc3nncs3)CS[C@H]12)C1=CSCCS1 (some centres unmarked) [compound 4, 7-[2-(2,3-dihydro-1,4-dithiin-5-yl)2-methoxyiminoacetamido]-3-(1,3,4-thiadiazol-2-yl)thiomethyl-3-cephem-4-carboxylic acid] |
